Test results from patent publication US9718770B2, “Substituted thioureas as heat shock protein 70 inhibitors” (Institute of Pharmacology and Toxicology Academy of …, priority 2013, dated 2017).

Key:
Hsp70 ATPase = target: T1, Hsp70 ATPase (Homo sapiens, UniProt P0DMV8); experiment: Inhibition of Hsp70 ATPase activity (malachite green); assay type: biochemical; settings: 200 μM; repeated screening carried out twice; Hsp70/Hsp40, 1 mM ATP; read-out: Inhibitory rate (%) on activity of Hsp70 ATPase
T1 construct: made in house; host or cells: E. coli
T1 sequence (P0DMV8 2-641 limits assumed): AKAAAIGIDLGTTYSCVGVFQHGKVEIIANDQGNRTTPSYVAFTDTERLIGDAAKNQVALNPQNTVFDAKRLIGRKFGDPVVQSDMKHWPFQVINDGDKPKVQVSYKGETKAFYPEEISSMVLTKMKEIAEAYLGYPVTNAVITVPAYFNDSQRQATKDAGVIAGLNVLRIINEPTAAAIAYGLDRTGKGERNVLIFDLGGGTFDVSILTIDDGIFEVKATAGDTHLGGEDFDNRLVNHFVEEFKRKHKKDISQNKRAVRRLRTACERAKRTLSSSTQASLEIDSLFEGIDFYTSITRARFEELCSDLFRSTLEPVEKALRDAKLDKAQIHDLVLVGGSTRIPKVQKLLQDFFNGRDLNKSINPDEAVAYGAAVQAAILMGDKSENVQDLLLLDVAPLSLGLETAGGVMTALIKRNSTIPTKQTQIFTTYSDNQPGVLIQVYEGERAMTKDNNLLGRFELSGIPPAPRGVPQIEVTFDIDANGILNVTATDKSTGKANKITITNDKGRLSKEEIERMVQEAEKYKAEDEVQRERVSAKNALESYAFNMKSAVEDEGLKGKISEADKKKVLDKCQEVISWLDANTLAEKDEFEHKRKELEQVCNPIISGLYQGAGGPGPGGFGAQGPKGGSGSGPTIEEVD
Description: (1) Protein: Humanized Hsp70, Hsp40, expressed by E. coli.
(2) Sample to be tested: 26 compound solids with different colors and states. Positive drugs AZ (CAS:1054543-47-3) and VER 155008 (CAS: 1134156-31-2) were synthesized in the laboratory.
(4) ATPase Assay buffer: • 0.017% Triton X-100; • 100 mM Tris-HCl; • 20 mM KCl; • 6 mM MgCl2, pH 7.4.
1) 13.08 μl DnaK (0.15 mg/mL, 2.14 μM), 1.96 μl DnaJ (1 mg/mL, 25 μM) were dissolved in 7.96 μl Assay Buffer (0.017% Triton X-100, 100 mM Tris-HCl, 20 mM KCl, and 6 mM MgCl2, pH 7.4), and the resultant solution was added to each well of the 96 well plate;
2) to each well of the 96 well plate, 1 μL sample to be tested (5 mM) or DMSO (solvent) was added, and vortexed with a Vortex agitator for 10 min; and then standing at 37° C. for 30 min;
3) to each well, 1 μL 25 mM ATP was added, to trigger the enzymatic reaction; (in each well, the final reaction volume was 25 μL, the final concentration of DnaK was 1.12 μM, the final concentration of DnaJ was 1.96 μM, the final concentration of DMSO was 4%, the final concentration of Triton X-100 was 0.01%, the final concentration of ATP was 1 mM, and the final concentration of sample to be tested was 200 μM), the enzymatic reaction was carried out at 37° C. for 3 h;
4) 80 μL Malachite green staining solution was then added to each well, and was vortexed gently;
5) 10 μL of 34% citrate sodium was then added immediately, and vortexed gently, to stop the ATP hydrolysis not caused by ATPase;
6) the resultant mixture was mixed thoroughly at 37° C. for 15 min, and OD620 was measured.
The inhibitory rate of Hsp70 ATPase activity is calculated in accordance with the following formula: Inhibitory rate (%)=(DMSO well OD−Experimental well OD)/(DMSO well OD−Blank well OD)×100
Criteria for preliminary screening: during preliminary screening, an example compound is regarded as effective in inhibition as long as its inhibitory rate is above 20% for Hsp70 ATPase at 200 μM.

SK/Lap^R1.0 = experiment: CDI of example compounds and Lapatinib (ATPlite cell survival); assay type: cell-based; settings: compound 5 μM + Lapatinib 1 μM, 72 h; secondary Lapatinib-resistant human breast cancer cells; CDI<1 synergistic
Description: (§1) Cells: (BT474 and SK-BR3 are Lapatinib-sensitive human breast cancer cell strains; BT/LapR and SK/LapR are secondary Lapatinib-resistant human breast cancer cell strains upon Lapatinib stimulation; MDA-MB-361 and MDA-MB-453 are natural Lapatinib-resistant human breast cancer cell strains. BT474, MDA-MB-361, SK-BR3 and MDA-MB-453 are from American Type Culture Collection (ATCC))
(§2) In a 100 mm culture dish full of adherent cells, digestion with 1 ml 0.25% pancreatin (GIBCO) was carried out at 37° C. for 5 min, and the reaction was stopped with 2 ml medium (containing 10% FBS, GIBCO). The cells were dispersed and collected. After cell count, the cells were diluted to a concentration of 1×10^5 cells/ml, and were seeded to a 96-well plate at 50 μl/well, 5000 cell/well, 60 wells in total, PBS instead of cells was added to the wells of the outmost circle, and the incubation was carried out at 37° C. for 24 h for adherence.
(§3) For the sample group, samples to be tested were diluted with DMSO to a final concentration of 5 μM; to control wells, the medium containing the same concentration of solvent corresponding to the compound was added, the concentrations of the compounds were identical in each well, 5 wells in parallel were set for each concentration, 25 μL/well, and 25 μL medium was added to each well (for the combination group, 25 μL Lapatinib was added to reach a final concentration of 1 μM). The incubation was carried out at 37° C. for 72 h.
(§4) To each well, 50 μL ATPlite kit substrate solution was added. The plate was under shaking for 3 min, and was then placed in dark for 10 min. The lysis supernatant was drawn at 100 μL/well, and placed in a luminescent plate. The incubated luminescent plate was placed in an iluminescence apparatus, and the iluminescent value was read.
(§5) Data Processing Cell survival rate (%)=Experimental group RLU/control group RLU×100%
(§6) Coefficient of drug interaction (CDI) is used to evaluate the interaction of two drugs, CDI is calculated in accordance with the following formula: CDI=AB/(A×B)×100%. The calculation is performed according to the number of live cells (luminescent value), if CDI<1, the two drugs have a synergistic effect; if CDI<0.7, the synergistic effect is very significant; if CDI=1, the effect of the two drugs in combination is the sum of the effects of the two drugs; if CDI>1, the two drugs have an antagonistic effect.

BT/Lap^R1.0 = experiment: as above; assay type: cell-based; settings: compound 5 μM + Lapatinib 1 μM, 72 h; secondary Lapatinib-resistant human breast cancer cells; CDI<1 synergistic
Description: as §1, §2, §3, §4, §5, §6

SK-BR3 = experiment: as above; assay type: cell-based; set-up: key: CDI = AB/(A×B); <1 synergistic; settings: compound 5 μM + Lapatinib 1 μM, 72 h; Lapatinib-sensitive human breast cancer cells; CDI<1 synergistic
Description: as §1, §2, §3, §4, §5, §6

BT474 = experiment: as above; assay type: cell-based; set-up: key: CDI = AB/(A×B); <1 synergistic; settings: compound 5 μM + Lapatinib 1 μM, 72 h; Lapatinib-sensitive human breast cancer cells; CDI<1 synergistic, <0.7 very significant, >1 antagonistic
Description: as §1, §2, §3, §4, §5, §6

MDA-MB-361 = experiment: as above; assay type: cell-based; set-up: key: CDI = AB/(A×B); <1 synergistic; settings: compound 5 μM + Lapatinib 1 μM, 72 h; natural Lapatinib-resistant human breast cancer cells; CDI<1 synergistic
Description: as §1, §2, §3, §4, §5, §6

MDA-MB-453 = experiment: as above; assay type: cell-based; set-up: key: CDI = AB/(A×B); <1 synergistic; settings: compound 5 μM + Lapatinib 1 μM, 72 h; natural Lapatinib-resistant human breast cancer cells; CDI<1 synergistic
Description: as §1, §2, §3, §4, §5, §6

| Structure (SMILES) | inhibition at 200 µM (Hsp70 ATPase) [%] | CDI of example compounds and Lapatinib, SK/Lap^R1.0 (SK/Lap^R1.0) | CDI of example compounds and Lapatinib, BT/Lap^R1.0 (BT/Lap^R1.0) | CDI of example compounds and Lapatinib, SK-BR3 (SK-BR3) | CDI of example compounds and Lapatinib, BT474 (BT474) | CDI of example compounds and Lapatinib, MDA-MB-361 (MDA-MB-361) | CDI of example compounds and Lapatinib, MDA-MB-453 (MDA-MB-453) |
| --- | --- | --- | --- | --- | --- | --- | --- |
| CC(C)C(NC(=O)/C=C/c1ccccc1)NC(=S)NC1CCCCC1 (centres unmarked) [Example 55, N-[1-(3-cyclohexylthioureido)-2-methylpropyl] cinnamamide] | 25.9 | 1.8 | 1.01 | 1.2 | 0.89 | 0.94 | 1.41 |
| Cc1ccccc1NC(=S)NC(CC(C)(C)C)NC(=O)/C=C/c1ccccc1 (centres unmarked) [Example 46, N-[3,3-dimethyl-1-(3-o-methylphenylthioureido)butyl] cinnamamide] | 41 | 1.25 | 0.79 | 1.29 | 0.74 | 0.94 | 1.64 |
| Cc1ccccc1NC(=S)NC(CC(C)C)NC(=O)/C=C/c1ccccc1 (centres unmarked) [Example 47, N-[3-methyl-1-(3-o-methylphenylthioureido)butyl] cinnamamide] | 61.3 | 0.98 | 0.97 | 1.15 | 0.84 | 1.05 | 1.39 |
| CC(C)(C)CC(NC(=O)/C=C/c1ccccc1)NC(=S)Nc1ccccc1 (centres unmarked) [Example 39, (2E)-N-[3,3-dimethyl-1-(3-phenylthioureido)butyl] cinnamamide] | 18.4 | 0.95 | 1.19 | 1.2 | 0.79 | 0.92 | 1.2 |
| COc1cc(/C=C/C(=O)NC(CC(C)C)NC(=S)NC2CCCCC2)cc(OC)c1OC (centres unmarked) [Example 51, (2E)-N-[1-(3-cyclohexylthioureido)-3-methylbutyl]-3-(3,4,5-trimethoxyphenyl) acrylamide] | 46.2 | 1.38 | 0.94 | 0.96 | 0.73 | 1.09 | 1.27 |
| Cc1ccccc1NC(=S)NC(NC(=O)/C=C/c1ccccc1)C(C)(C)C (centres unmarked) [Example 48, N-[2,2-dimethyl-1-(3-o-methylphenylthioureido)propyl] cinnamamide] | -0.88 | 0.99 | 0.96 | 1.15 | 0.92 | 1.15 | 1.2 |
| COc1cc(/C=C/C(=O)NC(NC(=S)NC2CCCCC2)C(C)(C)C)cc(OC)c1OC (centres unmarked) [Example 52, (2E)-N-[1-(3-cyclohexylthioureido)-2,2-dimethylpropyl]-3-(3,4,5-trimethoxyphenyl) acrylamide] | 35.8 | 1.11 | 0.86 | 0.88 | 0.56 | 0.92 | 1.18 |
| COc1cc(/C=C/C(=O)NC(CC(C)C)NC(=S)Nc2cccnc2)cc(OC)c1OC (centres unmarked) [Example 25, (2E)-N-[3-methyl-1-(3-pyridin-3-ylthioureido)butyl]-3-(3,4,5-trimethoxyphenyl) acrylamide] | 38.5 | 0.93 | 0.97 | 1.04 | 0.94 | 0.93 | 1.2 |
| COc1cc(/C=C/C(=O)NC(CC(C)(C)C)NC(=S)Nc2cccnc2)cc(OC)c1OC (centres unmarked) [Example 33, (2E)-N-[3,3-dimethyl-1-(3-pyridin-3-ylthioureido)butyl]-3-(3,4,5-trimethoxyphenyl) acrylamide] | 47.1 | 0.88 | 0.97 | 0.96 | 0.81 | 0.89 | 1.19 |
| COc1cc(/C=C/C(=O)NC(CC(C)C)NC(=S)Nc2ccccc2)cc(OC)c1OC (centres unmarked) [Example 24, (2E)-N-[3-methyl-1-(3-phenylthioureido)butyl]-3-(3,4,5-trimethoxyphenyl) acrylamide] | 50.4 | 1 | 0.98 | 1.04 | 1.03 | 0.92 | 1.12 |
| CC(C)(C)C(NC(=O)/C=C/c1ccccc1)NC(=S)NC1CCCCC1 (centres unmarked) [Example 56, N-[1-(3-cyclohexylthioureido)-2,2-dimethylpropyl] cinnamamide] | 21.4 | 1 | 1.21 | 1.19 | 0.77 | 0.96 | 1.32 |
